Data reported in ChEMBL document CHEMBL1201862, “PubChem BioAssay data set” (2004).
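48-hour exposure; five concentrations; linearly interpolated endpoints. GI50 marks 50% less growth.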 Calls of active or inactive are those of the source. Cut-off read from the data, not from the text of the source: active = GI50 up to about 1.1 µM and inactive = higher. Bridge positions count the residues as written; N and C are the ends. Square brackets hold non-standard residues; d marks the D form. Peptide text beside a SMILES is read from it. * marks the point of attachment. Cbz = O=C(OCc1ccccc1)*; Dab = NCC[CH](N)C(=O)O; Bn = c1ccc(C*)cc1

How the values were obtained:
Assay in all cases: NCI tumour cell line growth inhibition, 48 h
SR = system: SR
SF-295 = system: SF-295
NCI-H522 = system: NCI-H522
SNB-75 = system: SNB-75
OVCAR-3 = system: OVCAR-3
DU-145 = system: DU-145
A549 = system: A549
SW-620 = system: SW-620
SK-MEL-28 = system: SK-MEL-28
SNB-19 = system: SNB-19
SF-539 = system: SF-539
Hs-578T = system: Hs-578T
KM12 = system: KM12
Malme-3M = system: Malme-3M
UO-31 = system: UO-31
K562 = system: K562
U-251 = system: U-251
RXF 393 = system: RXF 393
A498 = system: A498

Measured: GI50

O=C(Nc1ccccc1)N(C1=NCC(CI)S1)c1ccc(F)cc1F (centres undefined)
inactive: SR 12.2 µM | SF-295 > 100 µM | NCI-H522 37.9 µM | SNB-75 > 100 µM | OVCAR-3 > 100 µM | DU-145 > 100 µM | A549 > 100 µM | SW-620 62.1 µM | SK-MEL-28 24.1 µM | SNB-19 > 100 µM | SF-539 59.3 µM | Hs-578T > 100 µM | KM12 45.6 µM | Malme-3M > 100 µM | UO-31 > 100 µM | K562 41.5 µM | U-251 > 100 µM | RXF 393 24.3 µM

CC(C)CC1NC(=O)C(Cc2ccccc2)NC(=O)C(Cc2ccccc2)NC(=O)C(NC(=O)C(Cc2ccc(OCc3ccccc3)cc2)NC(=O)OCc2ccccc2)CCNC1=O (centres undefined) (Cbz-Y(Bn)[Dab]FFL; lactam 2-C; configuration not given here)
inactive: SR 63.1 µM | SF-295 > 100 µM | NCI-H522 23 µM | OVCAR-3 > 100 µM | DU-145 > 100 µM | SW-620 > 100 µM | SK-MEL-28 > 100 µM | SNB-19 > 100 µM | SF-539 > 100 µM | Hs-578T > 100 µM | KM12 64.7 µM | Malme-3M 74.3 µM | K562 > 100 µM | U-251 29.4 µM | RXF 393 > 100 µM

Nc1nc(-c2ccccc2)cc(-c2ccc(F)cc2)c1-c1ccc(Cl)cc1
inactive: SR 22.2 µM | SF-295 41.6 µM | SNB-75 > 100 µM | OVCAR-3 > 100 µM | DU-145 > 100 µM | A549 > 100 µM | SW-620 > 100 µM | SK-MEL-28 > 100 µM | SNB-19 > 100 µM | Hs-578T 73.3 µM | KM12 > 100 µM | Malme-3M > 100 µM | UO-31 > 100 µM | K562 12.5 µM | U-251 > 100 µM | RXF 393 > 100 µM

CCOC(=O)C1=COC(C)(c2ccccc2)CC1=O (centres undefined)
inactive: SF-295 > 100 µM | NCI-H522 > 100 µM | SNB-75 > 100 µM | OVCAR-3 > 100 µM | DU-145 > 100 µM | A549 > 100 µM | SW-620 > 100 µM | SK-MEL-28 > 100 µM | SNB-19 > 100 µM | SF-539 > 100 µM | Hs-578T 88.9 µM | A498 > 100 µM | KM12 > 100 µM | UO-31 > 100 µM | K562 > 100 µM | U-251 > 100 µM | RXF 393 63.1 µM

Cn1c(=O)c2c(ncn2CCSS(=O)(=O)O)n(C)c1=O
inactive: SF-295 > 100 µM | NCI-H522 > 100 µM | SNB-75 38.5 µM | OVCAR-3 > 100 µM | DU-145 > 100 µM | A549 > 100 µM | SW-620 > 100 µM | SK-MEL-28 > 100 µM | SNB-19 > 100 µM | SF-539 > 100 µM | Hs-578T 74.5 µM | A498 > 100 µM | KM12 > 100 µM | Malme-3M > 100 µM | UO-31 > 100 µM | K562 > 100 µM | U-251 45.8 µM | RXF 393 79.1 µM

CCCCCCCCCCCC(=O)OCC(O)CO (centres undefined) [GLYCEROL MONOLAURATE]
inactive: SF-295 > 100 µM | NCI-H522 > 100 µM | SNB-75 > 100 µM | OVCAR-3 76.9 µM | DU-145 > 100 µM | A549 54.1 µM | SW-620 > 100 µM | SK-MEL-28 > 100 µM | SNB-19 > 100 µM | SF-539 > 100 µM | Hs-578T > 100 µM | A498 > 100 µM | KM12 20.4 µM | UO-31 71.9 µM | U-251 71.3 µM

C=C(CC[C@@H](C(=O)O)[C@H]1[C@H](O)C[C@@]2(C)C3=CC[C@@H](C(=C)C)[C@](C)(CCC(=O)O)C3=CC[C@]12C)C(C)C [PORICOIC ACID A]
inactive: SF-295 17.5 µM | NCI-H522 20.4 µM | SNB-75 20.4 µM | OVCAR-3 19.1 µM | DU-145 20.6 µM | A549 18.7 µM | SW-620 22.2 µM | SK-MEL-28 19.4 µM | SNB-19 17.7 µM | SF-539 20 µM | Hs-578T 22.6 µM | A498 23.6 µM | KM12 18.3 µM | Malme-3M 22.5 µM | UO-31 17.2 µM | K562 26.5 µM | U-251 18 µM | RXF 393 17.2 µM

O=c1oc2c/c(=C\c3ccc([N+](=O)[O-])cc3)c(=O)c3cccc1c3-2
inactive: SR > 100 µM | SF-295 > 100 µM | NCI-H522 28.1 µM | SNB-75 22 µM | OVCAR-3 48.5 µM | DU-145 > 100 µM | A549 > 100 µM | SW-620 > 100 µM | SK-MEL-28 > 100 µM | SNB-19 > 100 µM | Hs-578T > 100 µM | KM12 83.6 µM | Malme-3M > 100 µM | UO-31 > 100 µM | K562 > 100 µM | U-251 28.6 µM

Cc1ccc(-n2cc(-c3ccc(Cl)cc3)c3c(=N)n(N)cnc32)cc1
inactive: SF-295 15.4 µM | NCI-H522 14.5 µM | SNB-75 12.6 µM | OVCAR-3 13.5 µM | DU-145 17.5 µM | A549 15.1 µM | SW-620 12.4 µM | SK-MEL-28 13.8 µM | SNB-19 11.8 µM | SF-539 13.4 µM | Hs-578T 3.71 µM | A498 15.9 µM | Malme-3M 13.2 µM | UO-31 11.7 µM | K562 6.46 µM | U-251 10.5 µM | RXF 393 4.69 µM

O=C(CCN1CCOCC1)c1ccc(Oc2ccc(F)cc2)cc1
inactive: SF-295 > 100 µM | SNB-75 19.6 µM | OVCAR-3 22.3 µM | DU-145 36 µM | A549 > 100 µM | SW-620 30.3 µM | SK-MEL-28 28 µM | SNB-19 > 100 µM | SF-539 17.9 µM | Hs-578T 19.9 µM | A498 > 100 µM | KM12 17.4 µM | Malme-3M 20.4 µM | UO-31 19.7 µM | K562 23.6 µM | U-251 53.2 µM

O=[N+]([O-])c1cccc(-c2ncnc(-c3cccc([N+](=O)[O-])c3)n2)c1
inactive: SF-295 41.6 µM | NCI-H522 38.5 µM | SNB-75 26.7 µM | OVCAR-3 35.9 µM | DU-145 > 100 µM | A549 > 100 µM | SW-620 > 100 µM | SK-MEL-28 > 100 µM | Hs-578T 51.2 µM | A498 23.9 µM | KM12 > 100 µM | Malme-3M > 100 µM | UO-31 > 100 µM | K562 48.6 µM | U-251 23.5 µM | RXF 393 18.5 µM

CC1(C)[C@@H]2CC[C@]1(C)[C@H](OC(=O)CSC#N)C2
inactive: SF-295 > 100 µM | NCI-H522 43.9 µM | SNB-75 > 100 µM | OVCAR-3 30.8 µM | DU-145 > 100 µM | A549 > 100 µM | SW-620 17.9 µM | SK-MEL-28 > 100 µM | SNB-19 > 100 µM | SF-539 28.7 µM | Hs-578T > 100 µM | A498 > 100 µM | KM12 > 100 µM | Malme-3M > 100 µM | UO-31 39.1 µM | U-251 > 100 µM | RXF 393 > 100 µM
